Columns and labels:
[1] = Chemical analysis of blood of rabbits fed 1% cholesterol diets; assay type: in vivo, New Zealand White rabbits; details: 6 weeks; for lowering of total plasma cholesterol level as compared to the comparative group: 0.1% in 1% cholesterol diet
Procedure: (§1) 24 three-month-old New Zealand White rabbits (Yeonam Horticulture and Animal Husbandry College, Korea), each weighing about 2.5 to 2.6 kg, were raised under a condition of temperature 20±2° C., relative humidity 55±5%, and photoperiod 12L/12D. […] RC4 diet comprises 7.6% moisture, 22.8% crude protein, 2.8% crude fat, 8.8% crude ash, 14.4% crude cellulose and 43.6% soluble nitrogen-free substances. Rutin and quercetin were purchased from Sigma Co. (St. Louis, Mo.).
The rabbits were fed for 6 weeks while being allowed free access to the diets and water.
After six weeks, the rabbits were anesthetized with an intramuscular injection of ketamine (50 mg/kg) in the femoral region and sacrificed. A blood sample was taken from the heart of each rabbit, allowed to stand for 2 hours and centrifuged at 3,000 rpm for 15 minutes and the supernatant serum was separated and stored in a freezer before use.
The chemical analysis of blood was carried out by employing a blood chemical analyzer (CIBA Corning 550 Express, USA) to determine the changes in GOT, GPT, γ-GTP, total cholesterol and triglyceride levels.

[2] = tested on: main artery fatty streak / arterial endothelium; test: Analysis for fatty streak in the main artery of cholesterol-fed rabbits; assay type: in vivo, New Zealand White rabbits; details: for A: Proportion (%) of fatty streak region to the total arterial area: 1% cholesterol diet plus 0.1% rutin or quercetin or 1 mg/kg Lovastatin, 6 weeks, Oil Red O staining
Procedure: as §1, with “substances.” for “substances. Rutin and quercetin were purchased from Sigma Co. (St. Louis, Mo.).”
The chest of each of the rabbits sacrificed in Step 2 was incised. The downward portion of the main artery from the site 1 cm above the aortic valve was cut out in a length of about 5 cm and the fat surrounding the main artery was removed. The main artery was incised in the middle along the longitudinal axis and pinned to a dish. The moist artery was photographed and, then, the staining of fatty streaks was carried out in accordance with the method of Esper, E., et al. (J. Lab. Clin. Med., 121, 103-110 (1993)) as follows.
A part of the incised main artery was washed three times with anhydrous propylene glycol for 2 min and stained for 30 min. with a saturated solution of Oil Red O (ORO, Sigma Co.) dissolved in propylene glycol. Thereafter, the artery was washed twice with 85% propylene glycol for 3 min. to remove remaining staining solution and, then washed with physiological saline. The artery was photographed and the photograph was traced. The area of stained region (fatty streak region) was determined with an image analyzer (LEICA, Q-600, Germany) and its proportion (%) to the total arterial area was calculated.

[3] = tested on: liver cells around the central vein; test: Microscopic grading of abnormal fat-containing cells in the liver of cholesterol-fed rabbits; assay type: in vivo, New Zealand White rabbits; details: 1% cholesterol plus 1 mg/kg Lovastatin or 0.1% rutin
Procedure: as §1, with “substances.” for “substances. Rutin and quercetin were purchased from Sigma Co. (St. Louis, Mo.).”

[4] = Plasma total cholesterol, HDL-cholesterol and neutral lipid in rats fed high-cholesterol diets; assay type: in vivo, Sprague-Dawley rats; details: six weeks
Procedure: 30 three-week-old white Sprague-Dawley rats (Taihan laboratory animal center, Korea), each weighing about 90 to 110 g, were evenly divided into three dietary groups by a randomized block design.
The rats were allowed to feed freely on the specified diet together with water for six weeks, the ingestion amount was recorded daily and the,rats were weighed every 7 days, and then the record was analyzed.
The rats of the dietary groups obtained in Step 1 were sacrificed and blood samples were taken therefrom. The blood was allowed to stand for 2 hours and centrifuged at 3,000 rpm for 15 minutes and the supernatant was separated and stored in a deep freezer before use. The chemical analysis of blood was carried out by employing a blood chemical analyzer (CIBA Corning 550 Express, USA) to determine the changes in total cholesterol, HDL-cholesterol and triglyceride levels.

[5] = tested on: ACAT; test: ACAT assay on liver microsomes of the fed rats; assay type: biochemical; details: liver microsomes of rats fed 0.1% test substance in 1% cholesterol diet, versus control group
Procedure: 1 g each of the livers taken from each group of rats of Example 2 was homogenized in 5 ml of homogenization medium (0.1 M KH2PO4, pH 7.4, 0.1 mM EDTA and 10 mM β-mercaptoethanol). The homogenate was centrifuged at 3,000×g for 15 min. at 4° C. and the supernatant thus obtained was centrifuged at 15,000×g for 15 min. at 4° C. to obtain a supernatant. The supernatant was put into an ultracentrifuge tube (Beckman) and centrifuged at 100,000×g for 1 hour at 4° C. to obtain microsomal pellets, which were then suspended in 3 ml of the homogenization medium and centrifuged at 100,000×g for 1 hour at 4° C. The pellets thus obtained were suspended in 1 ml of the homogenization medium. The protein concentration of the resulting suspension was determined by Lowry's method and then adjusted to 4 to 8 mg/ml. The resulting suspension was stored in a deep freezer (Biofreezer, Forma Scientific Inc.). […]
200 μl of the resulting supernatant was put in a scintillation bottle and 4 ml of scintillation fluid (Lumac) was added thereto. The mixture was assayed for radioactivity with 1450 Microbeta liquid scintillation counter (Wallacoy, Finland). ACAT activity was calculated as picomoles of cholesteryl oleate synthesized per min. per mg protein (pmoles/min/mg protein).

[6] = molecular target: T1, HMG-CoA reductase (Rattus norvegicus, UniProt P51639); test: HMG-CoA reductase activity assay on liver microsomes of the fed rats; assay type: biochemical; details: liver microsomes of rats fed 0.1% test substance in 1% cholesterol diet, versus control group
T1 construct: the supernatant was ultracentrifuged at 100,000×g for 60 minutes to obtain microsomal precipitates; from tissue; host or cells: liver microsomes of the fed rats
T1 sequence (P51639 1-887): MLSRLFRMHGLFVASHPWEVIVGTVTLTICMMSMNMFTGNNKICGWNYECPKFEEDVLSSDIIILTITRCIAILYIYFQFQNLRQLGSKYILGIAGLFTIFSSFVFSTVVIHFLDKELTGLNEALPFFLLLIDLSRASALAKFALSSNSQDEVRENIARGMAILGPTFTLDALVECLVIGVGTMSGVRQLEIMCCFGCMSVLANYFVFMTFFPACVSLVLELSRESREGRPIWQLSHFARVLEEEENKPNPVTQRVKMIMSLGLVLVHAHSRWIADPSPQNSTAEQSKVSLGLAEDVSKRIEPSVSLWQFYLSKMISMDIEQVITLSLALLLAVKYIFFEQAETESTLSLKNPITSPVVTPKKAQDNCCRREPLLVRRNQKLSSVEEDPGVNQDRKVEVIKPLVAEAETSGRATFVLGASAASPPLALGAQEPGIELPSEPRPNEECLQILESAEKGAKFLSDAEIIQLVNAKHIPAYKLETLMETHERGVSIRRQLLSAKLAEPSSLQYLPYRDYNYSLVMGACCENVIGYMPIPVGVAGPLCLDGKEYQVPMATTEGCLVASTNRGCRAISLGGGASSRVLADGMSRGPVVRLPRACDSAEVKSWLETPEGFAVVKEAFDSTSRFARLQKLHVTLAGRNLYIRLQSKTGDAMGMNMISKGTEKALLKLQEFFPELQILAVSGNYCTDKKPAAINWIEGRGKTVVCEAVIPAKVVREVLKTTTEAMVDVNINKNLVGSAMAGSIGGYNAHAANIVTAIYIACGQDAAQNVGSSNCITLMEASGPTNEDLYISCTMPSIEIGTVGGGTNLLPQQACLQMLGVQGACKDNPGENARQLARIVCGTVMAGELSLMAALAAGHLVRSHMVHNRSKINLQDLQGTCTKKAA
Procedure: In order to determine the activity of HMG-COA reductase, Hulcher's method was employed after some modification (see J. Lipid Res., 14, 625-641(1973)). In this method, the concentration of the coenzyme-A (CoA-SH), which is produced when HMG-CoA is reduced to a mevalonate salt by the action of HMG-CoA reductase, is determined by spectroscopy and the activity of HMG-CoA reductas e is calculated therefrom.
3g of liver tissue taken from each group of rats of Example 2 was washed successively with 100 ml of a cold saline (0.15M NaCl) and 100 ml of a cold buffer solution A (0.1M triethanolamine, HCl/0.2M EDTA/2 mM dithiothreitol (DTT)). The cold buffer solution A was added to the liver tissue in an amount of 2 ml per 1 g of the liver tissue and the mixture was homogenized with a homogenizer. The homogenate was centrifuged at 15,000×g for 15 minutes, and then, the supernatant was ultracentrifuged at 100,000×g for 60 minutes to obtain microsomal precipitates. The precipitates thus obtained was washed with a cold buffer solution A and kept in a 1.5 ml tube at −70° C. […]
Then, the reactant was mixed with 20 μl of DTNB buffer solution (3mM DTNB/0.1M triethanolamine/0.2M EDTA, pH 7.4) and the absorbance of the mixture was determined at 412 nm to calculate the amount of CoA-SH (activity of HMG-CoA reductase activity).

[7] = tested on: ICR mice; test: Toxicity of orally administered rutin (single oral dose, 10 day observation)
Procedure: 12 seven-week-old, specific pathogen-free ICR […] mice, six female mice each weighing about 25 to 29 g and six male mice each weighing about 34 to 38 g, were kept under an environment of 22±1° C., 55±5% relative humidity and 12L/12D photoperiod. Fodder (Cheiljedang Co., mouse and rat fodder) and water were sterilized and fed to the mice.
Further, on the 10th day, the mice were sacrificed and the internal organs were visually examined.

[8] = Administration of rutin capsules to humans, plasma lipid metabolism; assay type: in vivo, human; details: two men, daily oral dose of lomg/kg as capsule, 60 days, before vs after
Procedure: The plasma cholesterol and neutral lipid (triglyceride) contents were determined before and after the administration.

[9] = 1% cholesterol diet plus 0.1% rutin or quercetin or 1 mg/kg Lovastatin
[10] = 1% cholesterol diet plus 0.1% test substance

Row | Structure (SMILES) | TG (triglyceride) [1, 9] [mg/dL] | Total-C (total cholesterol) [1, 9] [mg/dL] | A: Proportion (%) of fatty streak region to the total arterial area [2] [%] | reduction of neutral lipid content compared with control group ([4]; 0.1% in 1% cholesterol diet) [%] | reduction of total plasma cholesterol level compared with control group ([4]; 0.1% in 1% cholesterol diet) [%] | HDL-C (HDL-cholesterol) [4, 10] [mg/dL] | TG (triglyceride) [4, 10] [mg/dL] | Inhibition of HMG-CoA reductase activity (%) [6] [%] | lowering of total plasma cholesterol level as compared to the comparative group [1] [%] | other results
1 | CC[C@H](C)C(=O)O[C@H]1C[C@@H](C)C=C2C=C[C@H](C)[C@H](CC[C@@H]3C[C@@H](O)CC(=O)O3)[C@H]21 [Lovastatin ®, Lovastatin, reference compound] | 65.6 | 1209.5 | 5 |  |  |  |  |  |  | layer of macrophage-lipid complex on the arterial endothelium (FIGS. 1B, 1C) ([2]; 1% cholesterol plus 1 mg/kg Lovastatin or 0.1% rutin): no or very thin layers; microscopic features of the liver (FIGS. 2B, 2C) [3]: many cells containing excessive fat
2 | O=c1c(O)c(-c2ccc(O)c(O)c2)oc2cc(O)cc(O)c12 [Quercetin, quercetin] | 30.0 | 820.0 | 8 | 17 | 30 | 41 ± 3 | 81 ± 4 | 30 | 30 | increase of HDL-C/Total-C ratio compared with control group ([4]; 0.1% in 1% cholesterol diet): 54%; HDL-C/Total-C ratio (row head is a formula, MATH:00001) [4, 10]: 43; Total-C (total cholesterol) [4, 10]: 95 ± 5 mg/dL; % Inhibition on ACAT activity [5]: 20%
3 | C[C@@H]1O[C@@H](OC[C@H]2O[C@@H](Oc3c(-c4ccc(O)c(O)c4)oc4cc(O)cc(O)c4c3=O)[C@H](O)[C@@H](O)[C@@H]2O)[C@H](O)[C@H](O)[C@H]1O [Rutin] | 35.3 | 798.2 | 10 | 20 | 21 | 36 ± 2 | 78 ± 3 | 40 | 30 | survival at day 10 ([7]; mice, single oral dose of 1,000 mg/kg): All the mice were alive; pathological abnormality at autopsy ([7]; mice, single oral dose of 1,000 mg/kg, day 10): did not develop any pathological abnormality; toxicity ([7]; mouse, in vivo, po, 160 mg/kg): no toxicity; reduction of plasma cholesterol content [8]: 25%; reduction of plasma neutral lipid (triglyceride) content [8]: 20%; GOT [1, 9]: 87.0 IU/l; GPT [1, 9]: 33.9 IU/l; γ-GTP [1, 9]: 1.92 IU/l

Source: patent US6562866B1 (priority 1998, dated 2003)
